How the values were obtained:
[1] = test system: blood clotting; assay: Effect of curcumin alone on blood clotting
Excerpt: Turmeric powder is the dried powdered rhizomes of Curcuma longa of the ginger family. Turmeric powder comprises 60-70% carbohydrates, 6-13% water, 6-8% protein, 5-10% fat, 3-7% dietary minerals, 3-7% essential oils such as turmerone and germacrone, 2-7% dietary fiber, and 1-6% curcuminoids. (including curcumin). […] The turmeric powder may be passed through a 100 mesh (149 micron) sieve such that the resulting particles are smaller than 149 microns in diameter. Generally, turmeric powder is present in the suspension at a concentration between 0.1 g per mL and 2 g per ml. In one embodiment, the concentration is between 0.1 g per mL and 1 g per mL. In yet another embodiment, the concentration is between 0.1 g per mL and 0.5 g per mL.

[2] = test system: most cancer cell lines; settings: cited from earlier work
[3] = test system: blood clotting; settings: Kim et al., BMB Rep. 2012; cited from earlier work

COc1cc(/C=C/C(=O)CC(=O)/C=C/c2ccc(O)c(OC)c2)ccc1O [curcumin]
promotion of blood clotting [1]: not found to promote blood clotting
anti-cancer activity [2]: moderate
IC50 ([2]; most cancer cell lines, peer reviewed literature): 20 µM
anticoagulant activity [3]: well-known anticoagulant

From patent US12642885B2, “Hemostatic and wound healing turmeric-polymer composite materials” (priority 2021, dated 2026)
